In US20250041380A1, “R[…] FOR SARS-COV2 DISEASE” (priority 2021, published 2025):
Where two headings read alike, the source gives them in different places.

Key:
[1] = biological target: T1, Cathepsin L (Homo sapiens, UniProt P07711); type: biochemical
T1 construct: purchased

[2] = biological target: T2, DPP4 (Homo sapiens, UniProt P27487); type: biochemical
T2 construct: purchased
T2 sequence (P27487 whole entry): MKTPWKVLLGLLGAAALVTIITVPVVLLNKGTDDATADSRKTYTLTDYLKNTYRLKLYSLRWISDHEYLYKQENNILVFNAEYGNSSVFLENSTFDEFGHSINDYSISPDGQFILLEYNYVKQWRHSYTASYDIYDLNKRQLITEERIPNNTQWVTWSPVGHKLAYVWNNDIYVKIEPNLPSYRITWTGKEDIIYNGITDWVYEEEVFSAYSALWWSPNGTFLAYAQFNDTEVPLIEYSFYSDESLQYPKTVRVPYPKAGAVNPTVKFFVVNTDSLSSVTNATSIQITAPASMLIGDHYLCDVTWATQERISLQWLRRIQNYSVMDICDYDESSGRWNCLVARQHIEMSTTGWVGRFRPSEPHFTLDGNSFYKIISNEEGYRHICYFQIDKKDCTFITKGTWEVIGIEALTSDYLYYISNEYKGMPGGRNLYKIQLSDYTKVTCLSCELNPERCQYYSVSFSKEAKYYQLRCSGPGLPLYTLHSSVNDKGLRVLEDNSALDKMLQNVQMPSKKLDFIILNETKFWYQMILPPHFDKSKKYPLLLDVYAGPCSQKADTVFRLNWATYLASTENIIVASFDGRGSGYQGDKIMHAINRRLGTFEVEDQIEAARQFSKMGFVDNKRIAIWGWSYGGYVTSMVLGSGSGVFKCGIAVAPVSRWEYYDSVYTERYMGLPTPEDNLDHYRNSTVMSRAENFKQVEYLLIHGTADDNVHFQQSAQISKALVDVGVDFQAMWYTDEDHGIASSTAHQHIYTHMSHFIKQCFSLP

T1 sequence (P07711 114-333): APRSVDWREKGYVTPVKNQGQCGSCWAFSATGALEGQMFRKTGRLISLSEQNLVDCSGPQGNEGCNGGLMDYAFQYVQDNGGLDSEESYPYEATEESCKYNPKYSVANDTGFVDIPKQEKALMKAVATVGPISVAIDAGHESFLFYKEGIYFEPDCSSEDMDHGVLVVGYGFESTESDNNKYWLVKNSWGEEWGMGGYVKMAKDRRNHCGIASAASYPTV

| SMILES | % Inhibition wrt Enzyme Control ([1]; 0.0001 μM) | % Inhibition wrt Enzyme Control ([1]; 0.01 μM) | % Inhibition wrt Enzyme Control ([1]; 0.1 µM) | % Inhibition wrt Enzyme Control ([2]; 0.001 μM) | % Inhibition wrt Enzyme Control ([2]; 0.01 μM) | % Inhibition wrt Enzyme Control ([2]; 0.1 µM) | % Inhibition wrt Enzyme Control ([2]; 1 µM) |
| --- | --- | --- | --- | --- | --- | --- | --- |
| CC(C)C[C@H](NC(=O)[C@H]1O[C@@H]1C(=O)O)C(=O)NCCCCN=C(N)N [E-64] | 7.4% | 24.2% | 61.0% |  |  |  |  |
| CC(C)C[C@H](NC(=O)OCc1ccccc1)C(=O)N[C@@H](C[C@@H]1CCNC1=O)C(O)S(=O)(=O)[O-].[Na+] (stereo partly shown) [GC376] |  |  |  | 32.4% | 76.2% | 87.1% | 99.5% |
